Measured values reported in patent US20230295140A1, “INHIBITORS OF VAP-1” (Acucela Inc., priority 2021, published 2023).
Where a name gives a salt, the structure may show the parent alone.

Experiments:
Assay type in all cases: biochemical
rhVAP-1 = rhVAP-1 (Homo sapiens (Human), UniProt Q16853); experiment: VAP-1 fluorometric assay (Amplex Red/HRP, benzylamine substrate); settings: class symbols, ranges defined in μM
Method in brief: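 Recombinant human VAP-1 oxidizes 50 μM benzylamine in 10 mM NaHCO3 pH 7.4 containing 0.05 mM Amplex Red and 0.5 U HRP, with inhibitor in 0.5% DMSO. After 30 min at 37 °C in the dark, resorufin fluorescence is read […], calibrated against an H2O2 standard curve.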

rhMAO-A = rhMAO-A (Homo sapiens (Human), UniProt P21397); experiment: MAO-Glo assay, MAO-A inhibition
Method in brief: (§1)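 Recombinant human MAO-A or MAO-B with luciferin-derivative substrate (10 μM for MAO-A, […]) in 100 mM HEPES pH 7.5, 5% glycerol, 1 h at room temperature; luminescence read 20 min after detection reagent.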

rhMAO-B = rhMAO-B (Homo sapiens (Human), UniProt P27338); experiment: MAO-Glo assay, MAO-B inhibition
Method in brief: as §1

[1] = class symbols, ranges defined in μM

rhMAO-B, sequence (P27338 whole entry): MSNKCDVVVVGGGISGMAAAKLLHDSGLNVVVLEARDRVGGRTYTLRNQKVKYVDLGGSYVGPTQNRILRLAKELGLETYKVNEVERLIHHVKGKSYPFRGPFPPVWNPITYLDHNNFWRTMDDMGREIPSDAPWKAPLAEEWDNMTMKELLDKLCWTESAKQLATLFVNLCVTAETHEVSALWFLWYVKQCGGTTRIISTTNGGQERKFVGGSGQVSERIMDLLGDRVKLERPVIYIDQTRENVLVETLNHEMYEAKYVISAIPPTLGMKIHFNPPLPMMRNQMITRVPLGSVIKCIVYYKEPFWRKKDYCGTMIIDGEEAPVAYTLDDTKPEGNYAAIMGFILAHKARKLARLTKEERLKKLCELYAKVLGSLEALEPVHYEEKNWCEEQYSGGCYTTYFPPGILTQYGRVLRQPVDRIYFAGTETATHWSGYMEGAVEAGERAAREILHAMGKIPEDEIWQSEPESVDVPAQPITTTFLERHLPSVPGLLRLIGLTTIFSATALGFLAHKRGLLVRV
rhVAP-1, sequence (Q16853 whole entry): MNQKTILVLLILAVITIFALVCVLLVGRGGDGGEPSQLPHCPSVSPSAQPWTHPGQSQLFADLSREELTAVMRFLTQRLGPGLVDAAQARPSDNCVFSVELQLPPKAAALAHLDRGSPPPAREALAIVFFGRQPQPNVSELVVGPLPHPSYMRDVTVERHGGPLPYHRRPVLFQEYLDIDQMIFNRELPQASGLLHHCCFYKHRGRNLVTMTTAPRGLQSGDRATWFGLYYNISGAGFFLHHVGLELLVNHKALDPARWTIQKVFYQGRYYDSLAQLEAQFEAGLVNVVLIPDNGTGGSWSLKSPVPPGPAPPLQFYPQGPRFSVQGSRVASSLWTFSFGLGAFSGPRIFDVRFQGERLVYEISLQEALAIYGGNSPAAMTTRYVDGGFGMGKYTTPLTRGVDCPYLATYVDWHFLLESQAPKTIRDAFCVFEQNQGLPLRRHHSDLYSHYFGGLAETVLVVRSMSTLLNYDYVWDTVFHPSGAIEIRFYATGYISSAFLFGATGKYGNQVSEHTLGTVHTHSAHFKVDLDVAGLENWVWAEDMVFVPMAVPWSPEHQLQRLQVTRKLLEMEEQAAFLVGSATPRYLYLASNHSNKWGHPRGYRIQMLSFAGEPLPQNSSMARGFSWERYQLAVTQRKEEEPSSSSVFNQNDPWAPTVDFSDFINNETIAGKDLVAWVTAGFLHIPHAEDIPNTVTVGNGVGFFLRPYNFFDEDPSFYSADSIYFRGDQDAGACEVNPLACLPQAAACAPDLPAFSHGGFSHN
rhMAO-A, sequence (P21397 whole entry): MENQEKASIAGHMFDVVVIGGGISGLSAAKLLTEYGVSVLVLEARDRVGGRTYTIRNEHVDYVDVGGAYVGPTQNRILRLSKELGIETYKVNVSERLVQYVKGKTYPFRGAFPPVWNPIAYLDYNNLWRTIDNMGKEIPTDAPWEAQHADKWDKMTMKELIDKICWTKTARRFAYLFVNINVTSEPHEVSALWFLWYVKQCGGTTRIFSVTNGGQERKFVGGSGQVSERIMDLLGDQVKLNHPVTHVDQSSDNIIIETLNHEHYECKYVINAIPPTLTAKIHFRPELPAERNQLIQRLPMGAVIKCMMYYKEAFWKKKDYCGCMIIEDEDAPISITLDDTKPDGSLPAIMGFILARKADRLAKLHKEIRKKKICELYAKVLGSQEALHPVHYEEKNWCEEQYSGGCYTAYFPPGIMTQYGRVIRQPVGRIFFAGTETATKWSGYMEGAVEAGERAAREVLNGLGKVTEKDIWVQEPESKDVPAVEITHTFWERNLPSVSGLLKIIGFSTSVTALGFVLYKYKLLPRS

Structure (SMILES): CCCCn1oc2cc(OC/C(=C/F)CN)ccc2c1=O [Example 9, (E)-6-((2-(aminomethyl)-3-fluoroallyl)oxy)-2-butylbenzo[d]isoxazol-3(2H)-one 4-methylbenzenesulfonate]
- IC50 (rhVAP-1): < 0.1 µM
- IC50 (rhMAO-A; [1]): 10 to 30 µM
- IC50 (rhMAO-B; [1]): 1 to 10 µM

Structure (SMILES): CCCNc1nc2ccc(OC/C(=C/F)CN)cc2o1 [Example 5, (E)-6-((2-(aminomethyl)-3-fluoroallyl)oxy)-N-propylbenzo[d]oxazol-2-amine]
- IC50 (rhVAP-1): < 0.1 µM
- IC50 (rhMAO-A; [1]): 10 to 30 µM
- IC50 (rhMAO-B; [1]): 0.1 to 1 µM

Structure (SMILES): CCCCc1nc2ccc(OC/C(=C/F)CN)c(C)c2o1 [Example 10, (E)-2-(((2-butyl-7-methylbenzo[d]oxazol-6-yl)oxy)methyl)-3-fluoroprop-2-en-1-amine]
- IC50 (rhVAP-1): 0.1 to 1 µM
- IC50 (rhMAO-A; [1]): 1 to 10 µM
- IC50 (rhMAO-B; [1]): < 0.1 µM

Structure (SMILES): NC/C(=C\F)COc1ccc2nc(NCc3ccccc3)oc2c1 [Example 21, (E)-6-((2-(aminomethyl)-3-fluoroallyl)oxy)-N-benzylbenzo[d]oxazol-2-amine 4-methylbenzenesulfonate]
- IC50 (rhVAP-1): < 0.1 µM
- IC50 (rhMAO-A; [1]): 10 to 30 µM
- IC50 (rhMAO-B; [1]): 0.1 to 1 µM

Structure (SMILES): NC/C(=C\F)COc1ccc2nc(NCCCO)sc2c1 [Example 88, (E)-3-((6-((2-(aminomethyl)-3-fluoroallyl)oxy)benzo[d]thiazol-2-yl)amino)propan-1-ol 4-methylbenzenesulfonate]
- IC50 (rhVAP-1): < 0.1 µM
- IC50 (rhMAO-A; [1]): 1 to 10 µM
- IC50 (rhMAO-B; [1]): 1 to 10 µM

Structure (SMILES): CCCCc1nc2ccc(C(=O)NC/C(=C/F)CN)cc2o1 [Example 40, (E)-N-(2-(aminomethyl)-3-fluoroallyl)-2-butylbenzo[d]oxazole-6-carboxamide 4-methylbenzenesulfonate]
- IC50 (rhVAP-1): 0.1 to 1 µM
- IC50 (rhMAO-A; [1]): 10 to 30 µM
- IC50 (rhMAO-B; [1]): 10 to 30 µM

Structure (SMILES): NC/C(=C\F)COc1ccc2nc(C3CCC(c4ccccc4)CC3)oc2c1 (stereo not drawn) [Example 41, (E)-3-fluoro-2-(((2-(4-phenylcyclohexyl)benzo[d]oxazol-6-yl)oxy)methyl)prop-2-en-1-amine 4-methylbenzenesulfonate]
- IC50 (rhVAP-1): < 0.1 µM
- IC50 (rhMAO-A; [1]): 10 to 30 µM
- IC50 (rhMAO-B; [1]): 0.1 to 1 µM

Structure (SMILES): CCCCc1nc2ccc(OC/C(=C/F)CN)cc2o1 [Example 1, (E)-2-(((2-butylbenzo[d]oxazol-6-yl)oxy)methyl)-3-fluoroprop-2-en-1-amine 4-methylbenzenesulfonate]
- IC50 (rhVAP-1): < 0.1 µM
- IC50 (rhMAO-A; [1]): < 0.1 µM
- IC50 (rhMAO-B; [1]): < 0.1 µM

Structure (SMILES): NC/C(=C/F)COc1ccc2nc(NCc3ccnc(C(F)(F)F)c3)oc2c1 [Example 62, (Z)-6-((2-(aminomethyl)-3-fluoroallyl)oxy)-N-((2-(trifluoromethyl)pyridin-4-yl)methyl)benzo[d]oxazol-2-amine 4-methylbenzenesulfonate]
- IC50 (rhVAP-1): < 0.1 µM
- IC50 (rhMAO-A; [1]): 10 to 30 µM
- IC50 (rhMAO-B; [1]): 1 to 10 µM

Structure (SMILES): CNC(=O)CN(C)c1nc2ccc(OC/C(=C\F)CN)cc2o1 [Example 72, (Z)-2-((6-((2-(aminomethyl)-3-fluoroallyl)oxy)benzo[d]oxazol-2-yl)(methyl)amino)-N-methylacetamide 4-methylbenzenesulfonate]
- IC50 (rhVAP-1): < 0.1 µM
- IC50 (rhMAO-A; bound printed in cell): > 50 µM
- IC50 (rhMAO-B; bound printed in cell): > 50 µM

Structure (SMILES): CCCCc1nc2ccc(C(=CF)CN)cc2o1 [Example 27, 2-(2-butylbenzo[d]oxazol-6-yl)-3-fluoroprop-2-en-1-amine 4-methylbenzenesulfonate]
- IC50 (rhVAP-1): < 0.1 µM
- IC50 (rhMAO-A; [1]): 1 to 10 µM
- IC50 (rhMAO-B; [1]): 10 to 30 µM

Structure (SMILES): CCCCc1nc2ccc(OC/C(=C/F)CN)cc2s1 [Example 3, (E)-2-(((2-butylbenzo[d]thiazol-6-yl)oxy)methyl)-3-fluoroprop-2-en-1-amine]
- IC50 (rhVAP-1): < 0.1 µM
- IC50 (rhMAO-A; [1]): 1 to 10 µM
- IC50 (rhMAO-B; [1]): < 0.1 µM

Structure (SMILES): COc1ccc(CNc2nc3ccc(OC/C(=C\F)CN)cc3o2)cn1 [Example 76, (Z)-6-((2-(aminomethyl)-3-fluoroallyl)oxy)-N-((6-methoxypyridin-3-yl)methyl)benzo[d]oxazol-2-amine 4-methylbenzenesulfonate]
- IC50 (rhVAP-1): < 0.1 µM
- IC50 (rhMAO-A; [1]): 1 to 10 µM
- IC50 (rhMAO-B; [1]): 1 to 10 µM

Structure (SMILES): CCCNc1nc2ccc(OC/C(=C/F)CN)cc2s1 [Example 4, (E)-6-((2-(aminomethyl)-3-fluoroallyl)oxy)-N-propylbenzo[d]thiazol-2-amine]
- IC50 (rhVAP-1): < 0.1 µM
- IC50 (rhMAO-A; [1]): 10 to 30 µM
- IC50 (rhMAO-B; [1]): 0.1 to 1 µM

Structure (SMILES): NC/C(=C\F)COc1ccc2nc(N3CC4(COC4)C3)oc2c1 [Example 67, (E)-2-(((2-(2-oxa-6-azaspiro[3.3]heptan-6-yl)benzo[d]oxazol-6-yl)oxy)methyl)-3-fluoroprop-2-en-1-amine 4-methylbenzenesulfonate]
- IC50 (rhVAP-1): < 0.1 µM
- IC50 (rhMAO-A; [1]): 1 to 10 µM
- IC50 (rhMAO-B; [1]): 1 to 10 µM

Structure (SMILES): CCCCc1nc2ccc(COC/C(=C/F)CN)cc2o1 [Example 28, (E)-2-(((2-butylbenzo[d]oxazol-6-yl)methoxy)methyl)-3-fluoroprop-2-en-1-amine]
- IC50 (rhVAP-1): < 0.1 µM
- IC50 (rhMAO-A; [1]): 10 to 30 µM
- IC50 (rhMAO-B; [1]): < 0.1 µM

Structure (SMILES): CC(C)(C)c1nc2ccc(OC/C(=C/F)CN)cc2o1 [Example 50, (E)-2-(((2-(tert-butyl)benzo[d]oxazol-6-yl)oxy)methyl)-3-fluoroprop-2-en-1-amine 4-methylbenzenesulfonate]
- IC50 (rhVAP-1): < 0.1 µM
- IC50 (rhMAO-A; [1]): 10 to 30 µM
- IC50 (rhMAO-B; [1]): 1 to 10 µM

Structure (SMILES): Cc1ncccc1CNc1nc2ccc(OC/C(=C\F)CN)cc2o1 [Example 69, (Z)-6-((2-(aminomethyl)-3-fluoroallyl)oxy)-N-((2-methylpyridin-3-yl)methyl)benzo[d]oxazol-2-amine 4-methylbenzenesulfonate]
- IC50 (rhVAP-1): < 0.1 µM
- IC50 (rhMAO-A; bound printed in cell): > 50 µM
- IC50 (rhMAO-B; [1]): 1 to 10 µM

Structure (SMILES): CCCCc1nc2ccc(N(C)C/C(=C/F)CN)cc2o1 [Example 20, (E)-N1-(2-butylbenzo[d]oxazol-6-yl)-2-(fluoromethylene)-N1-methylpropane-1,3-diamine]
- IC50 (rhVAP-1): < 0.1 µM
- IC50 (rhMAO-A; [1]): 10 to 30 µM
- IC50 (rhMAO-B; [1]): 1 to 10 µM

Structure (SMILES): CCCCc1nc2ccc(OC/C(=C/F)CN)cc2[nH]1 [Example 13, (E)-2-(((2-butyl-1H-benzo[d]imidazol-6-yl)oxy)methyl)-3-fluoroprop-2-en-1-amine 4-methylbenzenesulfonate]
- IC50 (rhVAP-1): < 0.1 µM
- IC50 (rhMAO-A; bound printed in cell): > 50 µM
- IC50 (rhMAO-B; [1]): 1 to 10 µM

Structure (SMILES): CCCNc1nc2ccc(OC/C(=C\F)CN)c(F)c2s1 [Example 14, (Z)-6-((2-(aminomethyl)-3-fluoroallyl)oxy)-7-fluoro-N-propylbenzo[d]thiazol-2-amine 4-methylbenzenesulfonate]
- IC50 (rhVAP-1): < 0.1 µM
- IC50 (rhMAO-A; [1]): 1 to 10 µM
- IC50 (rhMAO-B; [1]): 1 to 10 µM

Structure (SMILES): CCCCc1nc2cc(OC/C(=C/F)CN)ccc2n1C [Example 11, (E)-2-(((2-butyl-1-methyl-1H-benzo[d]imidazol-5-yl)oxy)methyl)-3-fluoroprop-2-en-1-amine]
- IC50 (rhVAP-1): < 0.1 µM
- IC50 (rhMAO-A; bound printed in cell): > 50 µM
- IC50 (rhMAO-B; bound printed in cell): > 50 µM

Structure (SMILES): CCCCc1nc2ccc(OCC(CN)=C(F)F)cc2o1 [Example 32, 2-(((2-butylbenzo[d]oxazol-6-yl)oxy)methyl)-3,3-difluoroprop-2-en-1-amine hydrochloride]
- IC50 (rhVAP-1): < 0.1 µM
- IC50 (rhMAO-A; [1]): 10 to 30 µM
- IC50 (rhMAO-B; [1]): 10 to 30 µM

Structure (SMILES): CCCCc1nc2cc(OC/C(=C/F)CN)ccc2o1 [Example 8, (E)-2-(((2-butylbenzo[d]oxazol-5-yl)oxy)methyl)-3-fluoroprop-2-en-1-amine 4-methylbenzenesulfonate]
- IC50 (rhVAP-1): < 0.1 µM
- IC50 (rhMAO-A; [1]): 1 to 10 µM
- IC50 (rhMAO-B; [1]): < 0.1 µM

Structure (SMILES): CCCC(C)c1nc2ccc(OC/C(=C/F)CN)cc2o1 (stereo not drawn) [Example 43, (E)-3-fluoro-2-(((2-(pentan-2-yl)benzo[d]oxazol-6-yl)oxy)methyl)prop-2-en-1-amine 4-methylbenzenesulfonate]
- IC50 (rhVAP-1): < 0.1 µM
- IC50 (rhMAO-A; [1]): 10 to 30 µM
- IC50 (rhMAO-B; [1]): 0.1 to 1 µM

Structure (SMILES): CCCCc1nc2ccc(OC/C(=C\F)CN)cc2o1 [Example 19, (Z)-2-(((2-butylbenzo[d]oxazol-6-yl)oxy)methyl)-3-fluoroprop-2-en-1-amine 4-methylbenzenesulfonate]
- IC50 (rhVAP-1): < 0.1 µM
- IC50 (rhMAO-A; [1]): 1 to 10 µM
- IC50 (rhMAO-B; [1]): 0.1 to 1 µM

Structure (SMILES): COc1cc(CNc2nc3ccc(OC/C(=C\F)CN)cc3o2)ccn1 [Example 74, (Z)-6-((2-(aminomethyl)-3-fluoroallyl)oxy)-N-((2-methoxypyridin-4-yl)methyl)benzo[d]oxazol-2-amine 4-methylbenzenesulfonate]
- IC50 (rhVAP-1): < 0.1 µM
- IC50 (rhMAO-A; [1]): 1 to 10 µM
- IC50 (rhMAO-B; [1]): 1 to 10 µM

Structure (SMILES): CC(C)(Nc1nc2ccc(OC/C(=C/F)CN)cc2o1)c1ccccc1 [Example 48, (E)-6-((2-(aminomethyl)-3-fluoroallyl)oxy)-N-(2-phenylpropan-2-yl)benzo[d]oxazol-2-amine 4-methylbenzenesulfonate]
- IC50 (rhVAP-1): < 0.1 µM
- IC50 (rhMAO-A; [1]): 10 to 30 µM
- IC50 (rhMAO-B; [1]): 10 to 30 µM

Structure (SMILES): CCCCc1nc2ccc(NC/C(=C\F)CN)cc2o1 [Example 44, (Z)—N1-(2-butylbenzo[d]oxazol-6-yl)-2-(fluoromethylene)propane-1,3-diamine 4-methylbenzenesulfonate]
- IC50 (rhVAP-1): < 0.1 µM
- IC50 (rhMAO-A; [1]): 10 to 30 µM
- IC50 (rhMAO-B; [1]): 0.1 to 1 µM

Structure (SMILES): NC/C(=C\F)COc1ccc2nc(NCc3cccnc3)oc2c1 [Example 26, (E)-6-((2-(aminomethyl)-3-fluoroallyl)oxy)-N-(pyridin-3-ylmethyl)benzo[d]oxazol-2-amine 4-methylbenzenesulfonate]
- IC50 (rhVAP-1): < 0.1 µM
- IC50 (rhMAO-A; [1]): 10 to 30 µM
- IC50 (rhMAO-B; [1]): 1 to 10 µM

Structure (SMILES): CCCCc1nc2ccc(CC(=CF)CN)cc2o1 [Example 18, 2-((2-butylbenzo[d]oxazol-6-yl)methyl)-3-fluoroprop-2-en-1-amine]
- IC50 (rhVAP-1): < 0.1 µM
- IC50 (rhMAO-A; [1]): 1 to 10 µM
- IC50 (rhMAO-B; [1]): 0.1 to 1 µM

Structure (SMILES): CC1(C)CCC(c2nc3ccc(OC/C(=C/F)CN)cc3o2)CC1 [Example 36, (E)-2-(((2-(4,4-dimethylcyclohexyl)benzo[d]oxazol-6-yl)oxy)methyl)-3-fluoroprop-2-en-1-amine 4-methylbenzenesulfonate]
- IC50 (rhVAP-1): < 0.1 µM
- IC50 (rhMAO-A; [1]): 10 to 30 µM
- IC50 (rhMAO-B; [1]): 0.1 to 1 µM
